# Results taken from ChEMBL document CHEMBL5579889, “Structure-Based Design and Development of Phosphine Oxides as a Novel Chemotype for Antibiotics that Dysregulate Bacterial ClpP Proteases” (J Med Chem, 2024).
# The source made the active and inactive calls. The rule behind the calls is not given here. Bridge positions count the residues as written; N and C are the ends. Square brackets hold non-standard residues; d marks the D form. Peptide text beside a SMILES is read from it. * marks the point of attachment. Phe(3,5-F2) = N[C@@H](Cc1cc(F)cc(F)c1)C(=O)O; Pro(4R-Me) = C[C@H]1CN[C@H](C(=O)O)C1; aThr = C[C@H](O)[C@H](N)C(=O)O; Pip = O=C(O)[C@@H]1CCCCN1; X1 = CCC/C=C/C=C/C(=O)*
# Experiments:
# [1] = molecular target: T1, ATP-dependent Clp protease proteolytic subunit (Staphylococcus aureus (strain NCTC 8325)) (UniProt Q2G036); assay: Activation of N-terminal His-tagged recombinant Staphylococcus aureus ClpP expressed in Escherichia coli SG1146(DE3) assessed as degradation of casein-FITC at 100 uM preincubated for 10 mins followed by casein addition measured for over 100 mins by fluorescence based assay; conditions: time > 110.0 min
# T1 sequence (whole entry): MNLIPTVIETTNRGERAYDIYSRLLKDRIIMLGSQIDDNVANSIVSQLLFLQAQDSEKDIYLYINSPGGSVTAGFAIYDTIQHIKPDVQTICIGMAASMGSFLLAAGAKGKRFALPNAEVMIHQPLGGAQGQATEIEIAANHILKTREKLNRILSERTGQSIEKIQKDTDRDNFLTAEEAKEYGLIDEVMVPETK
# [2] = test system: Streptococcus pneumoniae; assay: Activation of recombinant Streptococcus pneumoniae ClpP extracted from Escherichia coli SG1146(DE3) assessed as degradation of casein-FITC at 100 uM preincubated for 10 mins followed by casein addition measured for over 100 mins by fluorescence based assay; conditions: time > 110.0 min
# [3] = molecular target: ATP-dependent Clp protease proteolytic subunit, mitochondrial (Homo sapiens) (UniProt Q16740); assay: Activation of N-terminal His-tagged recombinant human ClpP expressed in Escherichia coli SG1146(DE3) assessed as degradation of casein-FITC at 100 uM preincubated for 10 mins followed by casein addition measured for over 100 mins by fluorescence based assay; conditions: time > 110.0 min
# ATP-dependent Clp protease proteolytic subunit, mitochondrial (Homo sapiens), sequence (Q16740 whole entry): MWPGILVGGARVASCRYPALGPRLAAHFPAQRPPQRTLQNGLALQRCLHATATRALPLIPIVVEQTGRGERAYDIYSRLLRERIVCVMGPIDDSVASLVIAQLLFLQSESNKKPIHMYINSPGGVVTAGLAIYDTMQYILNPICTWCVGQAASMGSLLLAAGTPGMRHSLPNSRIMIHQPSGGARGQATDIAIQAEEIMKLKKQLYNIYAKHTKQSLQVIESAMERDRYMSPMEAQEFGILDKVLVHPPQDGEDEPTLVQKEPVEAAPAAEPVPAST
# [4] = molecular target: ATP-dependent Clp protease proteolytic subunit (Escherichia coli (strain K12)) (UniProt P0A6G7); assay: Activation of N-terminal His-tagged recombinant Escherichia coli ClpP expressed in Escherichia coli SG1146(DE3) assessed as degradation of casein-FITC at 100 uM preincubated for 10 mins followed by casein addition measured for over 100 mins by fluorescence based assay; conditions: filed as activator, time > 110.0 min
# ATP-dependent Clp protease proteolytic subunit (Escherichia coli (strain K12)), sequence (P0A6G7 whole entry): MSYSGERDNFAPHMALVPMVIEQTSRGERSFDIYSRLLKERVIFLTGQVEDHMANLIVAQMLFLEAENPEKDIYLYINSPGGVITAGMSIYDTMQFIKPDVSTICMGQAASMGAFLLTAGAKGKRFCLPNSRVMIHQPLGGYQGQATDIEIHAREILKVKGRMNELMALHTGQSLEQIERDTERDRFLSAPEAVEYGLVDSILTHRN
# [5] = molecular target: ATP-dependent Clp protease proteolytic subunit (Neisseria gonorrhoeae) (UniProt Q5F914); assay: Activation of N-terminal His-tagged recombinant Neisseria gonorrhoeae ClpP expressed in Escherichia coli SG1146(DE3) assessed as degradation of casein-FITC at 100 uM preincubated for 10 mins followed by casein addition measured for over 100 mins by fluorescence based assay; conditions: time > 110.0 min
# ATP-dependent Clp protease proteolytic subunit (Neisseria gonorrhoeae), sequence (Q5F914 whole entry): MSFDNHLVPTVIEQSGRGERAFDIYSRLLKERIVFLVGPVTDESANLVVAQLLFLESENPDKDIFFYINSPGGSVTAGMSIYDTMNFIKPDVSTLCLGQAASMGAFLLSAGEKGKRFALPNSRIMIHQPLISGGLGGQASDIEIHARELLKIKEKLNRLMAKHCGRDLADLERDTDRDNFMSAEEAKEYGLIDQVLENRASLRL
# [6] = molecular target: T2, ATP-dependent Clp protease proteolytic subunit (Escherichia coli (strain K12), UniProt P0A6G7); assay: Activation of N-terminal His-tagged recombinant Escherichia coli ClpP expressed in Escherichia coli SG1146(DE3) assessed as degradation of casein-FITC preincubated for 10 mins followed by casein addition measured for over 100 mins by fluorescence based assay
# T2 sequence (P0A6G7 whole entry): as the sequence (P0A6G7 whole entry) above
# [7] = molecular target: T3, ATP-dependent Clp protease proteolytic subunit (Neisseria gonorrhoeae, UniProt Q5F914); assay: Activation of N-terminal His-tagged recombinant Neisseria gonorrhoeae ClpP expressed in Escherichia coli SG1146(DE3) assessed as degradation of casein-FITC preincubated for 10 mins followed by casein addition measured for over 100 mins by fluorescence based assay
# T3 sequence (Q5F914 whole entry): as the sequence (Q5F914 whole entry) above
# [8] = test system: Neisseria gonorrhoeae; assay: Antibacterial activity against Neisseria gonorrhoeae MS11 measured after 16 to 18 hrs by OD based assay; type: functional; conditions: time 16-18 hrs
# [9] = test system: Neisseria gonorrhoeae; assay: Antibacterial activity against Neisseria gonorrhoeae FA19 measured after 16 to 18 hrs by OD based assay; type: functional; conditions: time 16-18 hrs
# [10] = test system: Neisseria gonorrhoeae; assay: Antibacterial activity against Neisseria gonorrhoeae WHO G measured after 16 to 18 hrs by OD based assay; type: functional; conditions: time 16-18 hrs
# [11] = test system: Neisseria gonorrhoeae; assay: Antibacterial activity against Neisseria gonorrhoeae WHO K measured after 16 to 18 hrs by OD based assay; type: functional; conditions: time 16-18 hrs
# [12] = test system: Neisseria gonorrhoeae; assay: Antibacterial activity against Neisseria gonorrhoeae WHO L measured after 16 to 18 hrs by OD based assay; type: functional; conditions: time 16-18 hrs
# [13] = test system: Neisseria gonorrhoeae; assay: Antibacterial activity against Neisseria gonorrhoeae WHO M measured after 16 to 18 hrs by OD based assay; type: functional; conditions: time 16-18 hrs
# [14] = test system: Neisseria gonorrhoeae; assay: Antibacterial activity against Neisseria gonorrhoeae WHO N measured after 16 to 18 hrs by OD based assay; type: functional; conditions: time 16-18 hrs
# [15] = test system: Neisseria gonorrhoeae; assay: Antibacterial activity against Neisseria gonorrhoeae WHO P measured after 16 to 18 hrs by OD based assay; type: functional; conditions: time 16-18 hrs
# [16] = test system: Neisseria gonorrhoeae; assay: Antibacterial activity against Neisseria gonorrhoeae WHO V measured after 16 to 18 hrs by OD based assay; type: functional; conditions: time 16-18 hrs
# [17] = test system: Neisseria gonorrhoeae; assay: Antibacterial activity against Neisseria gonorrhoeae WHO X measured after 16 to 18 hrs by OD based assay; type: functional; conditions: time 16-18 hrs
# [18] = test system: Neisseria gonorrhoeae; assay: Antibacterial activity against Neisseria gonorrhoeae WHO Y measured after 16 to 18 hrs by OD based assay; type: functional; conditions: time 16-18 hrs
# [19] = test system: Neisseria gonorrhoeae; assay: Antibacterial activity against Neisseria gonorrhoeae WHO Z measured after 16 to 18 hrs by OD based assay; type: functional; conditions: time 16-18 hrs
# [20] = test system: Neisseria meningitidis; assay: Antibacterial activity against wild-type Neisseria meningitidis H44/76 measured after 16 to 18 hrs by OD based assay; type: functional; conditions: time 16-18 hrs
# [21] = test system: Neisseria meningitidis; assay: Antibacterial activity against Neisseria meningitidis H44/76 harboring deltaclpP measured after 16 to 18 hrs by OD based assay; type: functional; conditions: time 16-18 hrs
# [22] = test system: Neisseria meningitidis; assay: Antibacterial activity against Neisseria meningitidis EG329 measured after 16 to 18 hrs by OD based assay; type: functional; conditions: time 16-18 hrs
# [23] = test system: Neisseria meningitidis; assay: Antibacterial activity against Neisseria meningitidis BZ169 measured after 16 to 18 hrs by OD based assay; type: functional; conditions: time 16-18 hrs
# [24] = test system: Neisseria meningitidis; assay: Antibacterial activity against Neisseria meningitidis NGPB24 measured after 16 to 18 hrs by OD based assay; type: functional; conditions: time 16-18 hrs
# [25] = test system: Neisseria meningitidis; assay: Antibacterial activity against Neisseria meningitidis AK50 measured after 16 to 18 hrs by OD based assay; type: functional; conditions: time 16-18 hrs
# [26] = test system: Neisseria meningitidis; assay: Antibacterial activity against Neisseria meningitidis 88/03415 measured after 16 to 18 hrs by OD based assay; type: functional; conditions: time 16-18 hrs
# [27] = test system: Neisseria meningitidis; assay: Antibacterial activity against Neisseria meningitidis BZ133 measured after 16 to 18 hrs by OD based assay; type: functional; conditions: time 16-18 hrs
# [28] = test system: Neisseria meningitidis; assay: Antibacterial activity against Neisseria meningitidis SWZ107 measured after 16 to 18 hrs by OD based assay; type: functional; conditions: time 16-18 hrs
# [29] = test system: Neisseria meningitidis; assay: Antibacterial activity against Neisseria meningitidis NGF26 measured after 16 to 18 hrs by OD based assay; type: functional; conditions: time 16-18 hrs
# [30] = test system: Neisseria meningitidis; assay: Antibacterial activity against Neisseria meningitidis NG144/82 measured after 16 to 18 hrs by OD based assay; type: functional; conditions: time 16-18 hrs
# [31] = molecular target: T2, ATP-dependent Clp protease proteolytic subunit; assay: Binding affinity to His-tagged recombinant Escherichia coli ClpP extracted from Escherichia coli SG1146(DE3) using casein as substrate assessed as apparent dissociation constant incubated upto 120 mins by SDS-PAGE analysis; conditions: read-out: Kd(app)
# [32] = molecular target: T3, ATP-dependent Clp protease proteolytic subunit; assay: Binding affinity to His-tagged recombinant Neisseria gonorrhoeae ClpP extracted from Escherichia coli SG1146(DE3) using casein as substrate assessed as apparent dissociation constant incubated upto 120 mins by SDS-PAGE analysis; conditions: read-out: Kd(app)
# [33] = Cytotoxicity against wild-type HEK293-T-REx cells assessed as cell viability upto 100 uM incubated for 3 days by AlamarBlue assay; type: toxicity, cell-based; conditions: human, 72 h, time 3 day
compound,measurement,setting,value
CC(C(=O)NCCSc1ccccc1C(F)(F)F)P(=O)(c1ccccn1)c1ccccn1 (stereo unspecified),Activity,[1],inactive
same,Activity,[2],inactive
same,Activity,[3],inactive
CC(C(=O)NCCSc1ccccc1C(F)(F)F)P(=O)(c1ccc(C(F)(F)F)cc1)c1ccc(C(F)(F)F)cc1 (stereo unspecified),Activity,[4],Active
same,Activity,[5],inactive
same,EC50,[6],4450 nM
CC(C)(C(=O)NCCSc1ccccc1C(F)(F)F)P(=O)(c1ccc(C(F)(F)F)cc1)c1ccc(C(F)(F)F)cc1,EC50,[6],4510 nM
same,EC50,[7],3280 nM
O=C(CP(=O)(c1ccc(C(F)(F)F)cn1)c1ccc(C(F)(F)F)cn1)NCCSc1ccccc1C(F)(F)F,Activity,[1],inactive
same,Activity,[2],inactive
same,Activity,[3],inactive
same,EC50,[6],1790 nM
same,EC50,[7],4900 nM
CC(C(=O)NCCSc1ccccc1Cl)P(=O)(c1ccccc1)c1ccccc1 (stereo unspecified),MIC,[8],3.1 µM
same,MIC,[9],3.1 µM
same,MIC,[10],1.6 µM
same,MIC,[11],1.6 µM
same,MIC,[12],3.1 µM
same,MIC,[13],1.6 µM
same,MIC,[14],1.6 µM
same,MIC,[15],3.1 µM
same,MIC,[16],3.1 µM
same,MIC,[17],4.7 µM
same,MIC,[18],12.5 µM
same,MIC,[19],1.6 µM
same,MIC,[20],1 µM
same,MIC,[21],> 25 µM
same,MIC,[22],1.7 µM
same,MIC,[23],1 µM
same,MIC,[24],3.1 µM
same,MIC,[25],4.7 µM
same,MIC,[26],1.6 µM
same,MIC,[27],2.4 µM
same,MIC,[28],0.3 µM
same,MIC,[29],1.6 µM
same,MIC,[30],0.3 µM
CC(C)(C(=O)NCCSc1ccccc1C(F)(F)F)P(=O)(c1ccccn1)c1ccccn1,Activity,[1],inactive
same,Activity,[2],inactive
same,Activity,[3],inactive
same,EC50,[6],2300 nM
same,EC50,[7],5100 nM
CC(C(=O)NCCSc1ccccc1C(F)(F)F)P(=O)(c1ccc(C(F)(F)F)cn1)c1ccc(C(F)(F)F)cn1 (stereo unspecified),Activity,[1],inactive
same,Activity,[2],inactive
same,Activity,[3],inactive
same,EC50,[6],2050 nM
same,EC50,[7],2750 nM
"CCC/C=C/C=C/C(=O)N[C@@H](Cc1cc(F)cc(F)c1)C(=O)N[C@@H]1C(=O)N2CCC[C@H]2C(=O)N2CCCC[C@H]2C(=O)N[C@@H](C)C(=O)N2C[C@H](C)C[C@H]2C(=O)O[C@H]1C (X1-[Phe(3,5-F2)][aThr]P[Pip]A[Pro(4R-Me)]; ester 2-C)",EC50,[6],4690 nM
same,EC50,[7],230 nM
same,MIC,[8],0.3 µM
same,MIC,[9],1.6 µM
same,MIC,[10],0.3 µM
same,MIC,[11],0.3 µM
same,MIC,[12],0.3 µM
same,MIC,[13],0.3 µM
same,MIC,[14],0.3 µM
same,MIC,[15],4.7 µM
same,MIC,[16],3.1 µM
same,MIC,[17],0.3 µM
same,MIC,[18],0.3 µM
same,MIC,[19],0.3 µM
same,MIC,[20],< 0.3 µM
same,MIC,[21],> 25 µM
same,MIC,[22],< 0.3 µM
same,MIC,[23],0.3 µM
same,MIC,[24],0.3 µM
same,MIC,[25],1.6 µM
same,MIC,[26],0.3 µM
same,MIC,[27],0.3 µM
same,MIC,[28],< 0.3 µM
same,MIC,[29],2.4 µM
same,MIC,[30],0.3 µM
CC(C)(C(=O)NCCSc1ccccc1Cl)P(=O)(c1ccc(C(F)(F)F)cc1)c1ccc(C(F)(F)F)cc1,EC50,[6],4770 nM
same,EC50,[7],1580 nM
CC(C)(C(=O)NCCSc1ccccc1Br)P(=O)(c1ccc(C(F)(F)F)cc1)c1ccc(C(F)(F)F)cc1,Activity,[1],inactive
same,Activity,[2],inactive
same,Activity,[3],inactive
same,EC50,[6],7230 nM
same,EC50,[7],3390 nM
CC(C)(C(=O)NCCSc1ccccc1C(F)(F)F)P(=O)(c1ccc(C(F)(F)F)cn1)c1ccc(C(F)(F)F)cn1,Activity,[1],inactive
same,Activity,[2],inactive
same,Activity,[3],inactive
same,EC50,[6],200 nM
same,EC50,[7],160 nM
same,Kd,[31],270 nM
same,Kd,[32],690 nM
same,Activity,[33],Non-Toxic
same,MIC,[8],1.6 µM
same,MIC,[9],1.6 µM
same,MIC,[10],1.6 µM
same,MIC,[11],1.6 µM
same,MIC,[12],1.6 µM
same,MIC,[13],1.6 µM
same,MIC,[14],1.6 µM
same,MIC,[15],1.6 µM
same,MIC,[16],3.1 µM
same,MIC,[17],1.6 µM
same,MIC,[18],3.1 µM
same,MIC,[19],2.4 µM
same,MIC,[20],0.3 µM
same,MIC,[21],3.1 µM
same,MIC,[22],13.8 µM
same,MIC,[23],18.8 µM
same,MIC,[24],25 µM
same,MIC,[25],50 µM
same,MIC,[26],18.8 µM
same,MIC,[27],25 µM
same,MIC,[28],123 µM
same,MIC,[29],18.8 µM
same,MIC,[30],18.8 µM
CCCC/C=C/C(=O)N[C@@H](Cc1ccccc1)C(=O)N[C@H]1COC(=O)[C@@H]2CCCN2C(=O)[C@H](C)NC(=O)[C@@H]2CCCCN2C(=O)[C@@H]2CCCN2C1=O,Activity,[1],inactive
same,Activity,[2],inactive
